Reference: ChEMBL document CHEMBL1145572, “Analogues of N-hydroxy-N'-phenylthiourea and N-hydroxy-N'-phenylurea as inhibitors of tyrosinase and melanin formation” (Bioorg Med Chem Lett, 2008)
The source made the active and inactive calls. The rule behind the calls is not given here.

How the values were obtained:
B16 [1] = test: Cytotoxicity against mouse B16 cells at 100 uM; type: functional, cell-based
Tyrosinase = target: T1, Tyrosinase (Agaricus bisporus, UniProt O42713)
T1 sequence (O42713 whole entry): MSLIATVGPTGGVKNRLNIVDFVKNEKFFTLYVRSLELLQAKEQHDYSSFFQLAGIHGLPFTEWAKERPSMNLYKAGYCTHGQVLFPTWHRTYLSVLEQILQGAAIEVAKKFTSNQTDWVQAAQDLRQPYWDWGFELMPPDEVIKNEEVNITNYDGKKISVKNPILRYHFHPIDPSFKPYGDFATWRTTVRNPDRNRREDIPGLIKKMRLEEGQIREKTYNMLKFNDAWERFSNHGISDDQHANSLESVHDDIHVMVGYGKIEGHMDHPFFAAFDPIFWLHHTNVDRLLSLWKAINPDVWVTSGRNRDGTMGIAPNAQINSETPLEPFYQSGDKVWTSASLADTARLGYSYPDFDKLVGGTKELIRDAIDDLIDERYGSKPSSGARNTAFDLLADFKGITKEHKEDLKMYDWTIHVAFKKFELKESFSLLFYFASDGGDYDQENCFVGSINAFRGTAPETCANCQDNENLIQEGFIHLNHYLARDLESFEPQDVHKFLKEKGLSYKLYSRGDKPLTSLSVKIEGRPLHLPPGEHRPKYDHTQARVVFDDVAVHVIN
Description: Inhibition of mushroom tyrosinase

B16 [2] = test: Inhibition of melanin production in mouse B16 cells at 100 uM; type: functional
B16 [3] = test: Inhibition of melanin production in mouse B16 cells at 50 uM; type: functional

| SMILES | Activity (B16 [1]) | IC50 (Tyrosinase) [µM] | Activity (B16 [2]) | inhibition at 100 µM (B16 [2]) [%] | inhibition at 50 µM (B16 [3]) [%] |
| --- | --- | --- | --- | --- | --- |
| CCCCOc1ccc(NC(=O)NO)cc1 | inactive | > 1000 | inactive | – | – |
| CONC(=S)Nc1ccc2ccccc2c1 | inactive | 26 | – | 85 | – |
| O=C(NO)Nc1ccc(NC(=O)NO)cc1 | inactive | 27 | – | 66 | – |
| CN(C(=O)NO)c1ccccc1 | inactive | 16 | – | – | – |
| CC(C)(C)[Si](C)(C)ONC(=O)Nc1ccccc1 | inactive | 70 | inactive | – | – |
| CN(O)C(=O)N(C)c1ccccc1 | inactive | > 1000 | – | – | – |
| O=C(NO)Nc1ccc(O)cc1 | inactive | 41 | – | 19 | – |
| ONC(=S)Nc1ccccc1 | inactive | > 1000 | inactive | – | – |
| CONC(=O)N(C)c1ccccc1 | inactive | > 1000 | – | – | – |
| CC(=O)N(O)C(=O)Nc1ccccc1 | inactive | 170 | – | – | – |
| O=C(NO)Nc1ccc([N+](=O)[O-])cc1 | inactive | 2.6 | – | 86 | – |
| CN(O)C(=O)Nc1ccc(Br)cc1 | inactive | > 1000 | inactive | – | – |
| O=C(NO)Nc1ccc(Br)cc1 | inactive | 2.7 | – | 75.5 | – |
| CN(O)C(=O)Nc1ccc([N+](=O)[O-])cc1 | inactive | 770 | – | 82 | – |
| CN(O)C(=O)Nc1ccccc1 | inactive | > 1000 | inactive | – | – |
| COc1ccc(NC(=O)NO)c(OC)c1 | inactive | > 1000 | inactive | – | – |
| Oc1ccc(O)cc1 [HYDROQUINONE] | – | 37 | – | – | – |
| COc1ccc(NC(=O)NO)cc1 | inactive | 32 | inactive | – | – |
| CONC(=O)Nc1ccccc1 | inactive | > 1000 | inactive | – | – |
| O=C(NO)Nc1ccccc1 | inactive | 0.29 | – | 78 | – |
| O=C(NO)Nc1ccc(C(F)(F)F)cc1 | inactive | 4.3 | – | 79.3 | – |
| O=C(NO)Nc1ccc(OCc2ccccc2)cc1 | inactive | 6.3 | inactive | – | – |
| OC[C@H]1O[C@@H](Oc2ccc(O)cc2)[C@H](O)[C@@H](O)[C@@H]1O [ARBUTIN] | – | – | – | 43.8 | – |
| CONC(=S)Nc1ccc([N+](=O)[O-])cc1 | inactive | > 1000 | – | – | 75.5 |
| NC(=O)Nc1ccccc1 | – | > 1000 | inactive | – | – |
